Results on seven compounds are retold here after patent US11352368B2, “Salt of fused ring pyrimidine compound, crystal form thereof and preparation method therefor and use thereof” (GUANGZHOU MAXINOVEL PHARMACEUTICALS CO., LTD., priority 2018, dated 2022).

Structures are written as SMILES. Values after ≈ are worked out from the molar mass of the structure shown. Counter-ions that a name gives are not always drawn. Like-named read-outs stand apart in the source and are kept apart here.

Data set [1] can be described thus: Solubility test of crystal form A and crystal form B in a medium (Example 12). Type of data set: physicochemical. The conditions noted are these: for solubility: thermodynamic from solid, read-out: Solubility (calculated by free base of the fused ring pyrimidine compound); for Solubility (calculated by free base of the fused ring pyrimidine compound): in mg/mL (unit assumed); for solubility in pure water compared to free base: versus free base of the fused ring pyrimidine compound. From the text: Example 12 Solubility Test of the Crystal Form A of the Fumarate of Fused Ring Pyrimidine Compound as Shown in Formula 2 and the Crystal Form B of the Adipate of Fused Ring Pyrimidine Compound as Shown in Formula 3 in a Medium

The nature of data set [2]: Solubility test of the salts in pure water (Example 6). It is filed as physicochemical. The conditions noted are these: for saturated solubility: room temperature, balancing about 20 hours, HPLC; for solubility in pure water compared with the free base: versus free base of the fused ring pyrimidine compound. The procedure:
2.0 mg of sample was precisely weighed into a liquid phase vial, 1.0 mL of purified water was added, the vial was subjected to ultrasonic treatment for about 30 seconds to disperse the samples evenly, then the vial was placed on a Labquaker rotator, and slowly rotated at room temperature for balancing. After balancing for about 20 hours, each vial was removed, and the solution was filtered with 0.45 μm nylon filter membrane. The filtrate was diluted by DMSO or not diluted and then detected by HPLC. At the same time, two parts of fused ring pyrimidine compounds were weighed and dissolved in DMSO to make standard solutions with concentration of 250 μg/mL and 500 μg/mL, respectively. The standard solutions were subjected to the HPLC detection. The sample concentration vs the peak area of HPLC principal component was used for make a standard curve, and the solubility of each sample in pure water was calculated by a external standard method.

Data set [3] is described as follows: Dynamic vapor sorption analysis (DVS). Type of data set: physicochemical. Particulars: for XRPD of samples after DVS test: XRPD diffraction peaks before and after DVS test; for DVS weight gain from 0% RH to 95% RH: 25° C., 0% to 95% relative humidity, weight percentage. The procedure: (§1) 10 mg of the crystal form A of the fumarate of fused ring pyrimidine compound as shown in formula 2 was weighed, and dried for 60 min under the condition of a temperature of 25° C. and a humidity of 0% RH, and then the humidity absorption characteristic of the sample was tested when the humidity changed from 0% RH to 95% RH, and the dehumidification characteristic of the sample was tested when the humidity changed from 95% RH to 0% RH. Each step length for the humidity changes was 5% RH, the balance standard was that the weight change rate was less than 0.01%/min within 5 min, and the longest balance time was 2 hours.
as §1, with “form B” for “form A”, “the adipate” for “the fumarate”, “formula 3” for “formula 2”

A short description of data set [4]: Pharmacokinetic experiment, single intragastric dose in rats. Type of data set: in vivo, SD rats. The conditions noted are these: single dose 10 mg/kg, 0.5% MC and 0.5% Tween80 in water. The procedure:
1) Preparation of animals 9 healthy male SD rats, each with a body weight of 220-230 g, were taken, fed with standard formulated granulated feed for rats at fixed times every day, and fasted for 12 hours before the experiment, and feeding was resumed after 4 hours of administration. Rats were free to drink water before, after and during the experiment. 9 rats were randomly divided into 3 groups.
2) Formulation of drugs: The fused ring pyrimidine compound as shown in formula 1, the crystal form A of the fumarate of fused ring pyrimidine compound as shown in formula 2 and the crystal form B of the adipate of fused ring pyrimidine compound as shown in formula 3 were accurately weighed, and were formulated into a 1 mg/mL solution in water (Wahaha/111830) with 0.5% MC (Fluka/BCBK3534K) and 0.5% Tween80 (TCl/V4FSC), respectively.
3) Intragastric administration with single dose (10 mg/kg): in the first group, rats were intragastrically administered with a solution of the fused ring pyrimidine compound as shown in formula 1, in the second group, rats were intragastrically administered with a solution of the crystal form A of the fumarate of fused ring pyrimidine compound as shown in formula 2, and in the third group, rats were intragastrically administered with a solution of the crystal form B of the adipate of fused ring pyrimidine compound as shown in formula 3.
4) Collection of blood samples: About 150 μL of blood was taken from the fundus venous plexus before administration and 0.083, 0.25, 0.5, 1, 2, 4, 8 and 24 hours after administration from each rat in the three groups, and anticoagulated with K2EDTA, plasma was separated by centrifugation and the supernatant was collected for LC-MS analysis.

Data set [5] can be described thus: Stability test (total impurities, 20 days). Particulars: for chemical stability in the condition of high temperature and high humidity / stability under light conditions versus the compound of formula 1: 20 days. Type of data set: physicochemical. On the procedure: The crystal form A of the fumarate of fused ring pyrimidine compound as shown in formula 2, the crystal form B of the adipate of fused ring pyrimidine compound as shown in formula 3 and the fused ring pyrimidine compound as shown in formula 1 were subjected to tests at a high temperature of 60° C., 25° C./60% RH, 40° C./75% RH and highlight irradiation (4500 lx±500 lx), the test time was 20 days, the sample bottles were placed under different test conditions, and samples were taken at 0 and 20 days to detect the total amount of impurities, and the test results were shown in Table 8 below.

The mark [6] stands for this setting: listed as The fumarate of fused ring pyrimidine compound as shown in formula 2.
[7] abbreviates: listed as The phosphate of fused ring pyrimidine compound as shown in formula 4.
Setting [8] is: listed as The tartrate of fused ring pyrimidine compound as shown in formula 5.
Setting [9] is: medium intestinal fluid in simulated fed state (FeSSIF).
[10] abbreviates: medium pH 4 (50 mM phosphate buffer).
The mark [11] stands for this setting: medium pH 6 (50 mM phosphate buffer).

One may read the solubility as the concentration that dissolves in the medium under given conditions.

Consider `COc1cc(F)ccc1-c1c(C)sc2cnc(Nc3cnn(C4CCNCC4)c3)nc12`, for which the solubility in data set [1] (50 mM phosphate buffer, pH 6, aqueous buffer, medium pH 6 (50 mM phosphate buffer)) was 36 µg/mL (≈ 82.1 µM); in data set [1] (FeSSIF, medium intestinal fluid in simulated fed state (FeSSIF)), 1910 µg/mL (≈ 4350 µM).

For `COc1cc(F)ccc1-c1c(C)sc2cnc(Nc3cnn(C4CCNCC4)c3)nc12` [Example 1], in data set [2], the saturated solubility came out at 170 µg/mL and the “solubility in pure water compared with the free base” value is recorded as “significantly improved”. In data set [3] (setting [6]), the “DVS: Moisture-absorption weight gain at 85% RH” value (“DVS … at 85% RH” for short) was 85% RH: 0.324%, the “DVS: Moisture-absorption weight gain at 95% RH” value (from here on “DVS … at 95% RH”) was 95% RH: 0.404%, the “XRPD of samples after DVS test” value was “consistent” and the “DVS: Weight loss in drying stage” value is given as “drying stage: 0.117%”.

On to `COc1cc(F)ccc1-c1c(C)sc2cnc(Nc3cnn(C4CCNCC4)c3)nc12` [Example 2], for which, in data set [2], the saturated solubility is 520 µg/mL and the “solubility in pure water compared with the free base” value is on record as “significantly improved”.

For `COc1cc(F)ccc1-c1c(C)sc2cnc(Nc3cnn(C4CCNCC4)c3)nc12` [Example 3], in data set [2], the saturated solubility amounted to 675 µg/mL and the “solubility in pure water compared with the free base” value is “significantly improved”. Further, in data set [3] (setting [7]), the “DVS … at 85% RH” value is 85% RH: 6.95%, the “DVS … at 95% RH” value is 95% RH: 12.15%, the “XRPD of samples after DVS test” value is “consistent” and the “DVS: Weight loss in drying stage” value is recorded as “drying stage: 0.752%”.

For the compound `COc1cc(F)ccc1-c1c(C)sc2cnc(Nc3cnn(C4CCNCC4)c3)nc12` [Example 4], in data set [2], the saturated solubility is 146 µg/mL and the “solubility in pure water compared with the free base” value is reported as “significantly improved”. Moreover, in data set [3] (setting [8]), the “DVS … at 85% RH” value is given as 85% RH: 8.390%, the “DVS … at 95% RH” value is 95% RH: 8.659% and the “DVS: Weight loss in drying stage” value is “drying stage: 5.88%”.

Turning to `COc1cc(F)ccc1-c1c(C)sc2cnc(Nc3cnn(C4CCNCC4)c3)nc12` [The crystal form A of the fumarate of fused ring pyrimidine ], the “Blood drug concentration (AUC)” value in data set [4] is 999 ng·h/mL. Besides, the Impurity content is reported as 0.25% in data set [5] (Day 0); 0.25% in data set [5] (Day 20, 25° C/60% RH); 0.28% in data set [5] (Day 20, 40° C/75% RH); 0.25% in data set [5] (Day 20, 60° C); 0.46% in data set [5] (Day 20, Light (4500 lx±500 lx)). Besides, in data set [5], the “chemical stability in the condition of high temperature and high humidity” value is given as “good chemical stability”. Also, the “stability under light conditions versus the compound of formula 1” value in data set [5] is recorded as “significantly higher”. The “DVS weight gain from 0% RH to 95% RH” value in data set [3] is on record as 0.2518%. Moreover, the “solubility in intestinal fluid (FeSSIF) in simulated fed state, in words” value in data set [1] (FeSSIF) is recorded as “high”. Moreover, the “pH value of sample solution for solubility” value in data set [1] (medium Purified water) is 7.27; in data set [1] (setting [9]), 5.19; in data set [1] (setting [10]), 4.33; in data set [1] (setting [11]) it was 5.96. Further, the “Solubility (calculated by free base of the fused ring pyrimidine compound)” value in data set [1] (medium Purified water) is reported as 0.126; in data set [1] (setting [10]) it was 0.159. Further, the “solubility in pure water compared to free base” value in data set [1] is reported as “significantly improved”.

Consider `COc1cc(F)ccc1-c1c(C)sc2cnc(Nc3cnn(C4CCNCC4)c3)nc12` [The crystal form B of the adipate of fused ring pyrimidine c], for which the “Blood drug concentration (AUC)” value in data set [4] came out at 1038 ng·h/mL. In addition, the Impurity content in data set [5] (Day 0) turned out to be 0.24%; in data set [5] (Day 20, 25° C/60% RH) it was 0.22%; in data set [5] (Day 20, 40° C/75% RH), 0.22%; in data set [5] (Day 20, 60° C) it was 0.23%; in data set [5] (Day 20, Light (4500 lx±500 lx)), 0.42%. Further, in data set [5], the “chemical stability in the condition of high temperature and high humidity” value is listed as “good chemical stability”. For the same compound, the “stability under light conditions versus the compound of formula 1” value in data set [5] is on record as “significantly higher”. Moreover, the “DVS weight gain from 0% RH to 95% RH” value in data set [3] is on record as 2.751%. The “pH value of sample solution for solubility” value in data set [1] (medium Purified water) was 7.09; in data set [1] (setting [9]) it was 5.2; in data set [1] (setting [10]), 4.85; in data set [1] (setting [11]), 6.01. Also, the “Solubility (calculated by free base of the fused ring pyrimidine compound)” value in data set [1] (medium Purified water) is 0.463; in data set [1] (setting [9]), 1.46; in data set [1] (setting [10]), 0.104; in data set [1] (setting [11]) it was 0.035. The “solubility in pure water compared to free base” value in data set [1] was “significantly improved”.
